# In patent US20230233569A1 (Revolution Medicines, Inc., priority 2020, published 2023):
# Where two headings read alike, the source gives them in different places.
# Experiments:
# KRAS G12S = KRAS G12S (Homo sapiens, UniProt P01116+P62937, G12S); experiment: Disruption of BRAF RBD interaction with Ras (FRET / MOA assay, with Cyclophilin A); assay type: biochemical
# Summary of the method: (§1)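 TR-FRET: nucleotide-loaded K-Ras mutant or WT with Cyclophilin A and BRAF RBD, compound 10-point 3-fold from 30 μM final, 3 h at 25° C, then anti-His Eu (10 nM) and anti-GST APC (50 nM) for 1.5 h. Decreased FRET ratio versus DMSO gives IC50.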
# KRAS G12V = KRAS G12V (Homo sapiens, UniProt P01116+P62937, G12V); experiment: as above; assay type: biochemical
# Chain of KRAS G12V (P01116 1-169 isoform P01116-2 G12V limits assumed): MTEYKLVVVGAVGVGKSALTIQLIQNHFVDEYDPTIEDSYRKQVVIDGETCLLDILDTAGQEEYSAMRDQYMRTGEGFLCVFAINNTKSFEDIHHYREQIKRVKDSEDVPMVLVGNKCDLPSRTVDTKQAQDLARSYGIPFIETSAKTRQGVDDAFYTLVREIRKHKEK
# Chain of KRAS G12V (P62937 whole entry): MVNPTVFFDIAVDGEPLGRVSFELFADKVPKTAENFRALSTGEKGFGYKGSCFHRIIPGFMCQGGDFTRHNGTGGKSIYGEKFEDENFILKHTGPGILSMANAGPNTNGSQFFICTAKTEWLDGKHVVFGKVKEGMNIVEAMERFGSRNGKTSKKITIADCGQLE
# Summary of the method: as §1
# KRAS G12D = KRAS G12D (Homo sapiens, UniProt P01116+P62937, G12D); experiment: as above; assay type: biochemical
# Chain of KRAS G12D (P01116 1-169 isoform P01116-2 G12D limits assumed): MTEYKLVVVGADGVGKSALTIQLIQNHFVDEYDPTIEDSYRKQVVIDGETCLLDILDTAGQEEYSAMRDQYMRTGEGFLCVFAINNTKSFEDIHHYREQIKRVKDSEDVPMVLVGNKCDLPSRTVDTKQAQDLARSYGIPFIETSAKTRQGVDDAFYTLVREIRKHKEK
# Chain of KRAS G12D (P62937 whole entry): as the sequence (P62937 whole entry) above
# Summary of the method: as §1
# NRAS G12C = NRAS G12C (Homo sapiens, UniProt P01111+P62937, G12C); experiment: as above; assay type: biochemical
# Chain of NRAS G12C (P01111 whole entry G12C): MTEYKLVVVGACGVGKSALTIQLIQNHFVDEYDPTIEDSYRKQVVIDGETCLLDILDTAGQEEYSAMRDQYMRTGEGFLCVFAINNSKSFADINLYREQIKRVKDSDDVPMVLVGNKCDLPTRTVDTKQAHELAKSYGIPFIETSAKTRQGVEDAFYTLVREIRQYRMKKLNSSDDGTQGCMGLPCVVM
# Chain of NRAS G12C (P62937 whole entry): as the sequence (P62937 whole entry) above
# KRAS G13C = KRAS G13C (Homo sapiens, UniProt P01116+P62937, G13C); experiment: as above; assay type: biochemical
# Chain of KRAS G13C (P01116 1-169 isoform P01116-2 G13C): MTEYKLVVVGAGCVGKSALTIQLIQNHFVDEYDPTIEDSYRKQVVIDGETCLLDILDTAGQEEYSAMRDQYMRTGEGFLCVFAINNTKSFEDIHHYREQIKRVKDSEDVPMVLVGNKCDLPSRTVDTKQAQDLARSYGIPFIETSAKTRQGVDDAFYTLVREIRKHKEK
# Chain of KRAS G13C (P62937 whole entry): as the sequence (P62937 whole entry) above
# Summary of the method: as §1
# KRAS WT = KRAS WT (Homo sapiens, UniProt P01116+P62937); experiment: as above; assay type: biochemical
# Chain of KRAS WT (P01116 1-169 isoform P01116-2 limits assumed): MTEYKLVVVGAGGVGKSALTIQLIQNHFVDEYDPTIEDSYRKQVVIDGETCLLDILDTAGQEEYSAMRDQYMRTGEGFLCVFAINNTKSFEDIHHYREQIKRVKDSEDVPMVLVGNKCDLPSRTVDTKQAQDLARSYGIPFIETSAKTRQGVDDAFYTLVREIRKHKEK
# Chain of KRAS WT (P62937 whole entry): as the sequence (P62937 whole entry) above
# Summary of the method: as §1
# KRAS G13D = KRAS G13D (Homo sapiens, UniProt P01116+P62937, G13D); experiment: as above; assay type: biochemical
# Chain of KRAS G13D (P01116 1-169 isoform P01116-2 G13D limits assumed): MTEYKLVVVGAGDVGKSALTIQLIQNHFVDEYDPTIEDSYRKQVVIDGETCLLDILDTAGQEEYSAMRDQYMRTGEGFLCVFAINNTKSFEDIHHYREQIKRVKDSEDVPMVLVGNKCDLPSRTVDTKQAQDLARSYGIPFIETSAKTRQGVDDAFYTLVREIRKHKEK
# Chain of KRAS G13D (P62937 whole entry): as the sequence (P62937 whole entry) above
# Summary of the method: as §1
# KRAS G12C = KRAS G12C (Homo sapiens, UniProt P01116+P62937, G12C); experiment: as above; assay type: biochemical
# Chain of KRAS G12C (P01116 1-169 isoform P01116-2 G12C): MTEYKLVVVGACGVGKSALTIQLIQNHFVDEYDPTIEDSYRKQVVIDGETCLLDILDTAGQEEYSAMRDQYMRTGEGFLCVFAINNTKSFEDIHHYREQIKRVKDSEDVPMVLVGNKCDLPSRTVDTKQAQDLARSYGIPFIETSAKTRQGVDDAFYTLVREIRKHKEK
# Chain of KRAS G12C (P62937 whole entry): as the sequence (P62937 whole entry) above
# Summary of the method: as §1
# Capan-1 (K-Ras G12V) = experiment: CellTiter-Glo cell viability assay, 5-day treatment; assay type: cell-based; conditions: Homo sapiens, CAPAN-1, 120 h, 5-day treatment; read-out: Capan-1 Cell Viability assay data (K-Ras G12V, IC50)
# Summary of the method: (§2)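 Luminescence read-out after 5 days of compound exposure, with plates first brought to room temperature for roughly 30 minutes. Values are percent of averaged DMSO wells, fitted by four-parameter logistic regression.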
# NCI-H358 (K-Ras G12C) = experiment: as above; assay type: cell-based; conditions: Homo sapiens, NCI-H358, 120 h, 5-day treatment; read-out: H358 Cell Viability assay data (K-Ras G12C, IC50)
# Summary of the method: as §2
# NRAS WT = NRAS WT (Homo sapiens, UniProt P01111+P62937); experiment: Disruption of BRAF RBD interaction with Ras (FRET / MOA assay, with Cyclophilin A); assay type: biochemical; conditions: NRAS WT; read-out: NRAS WT FRET data IC50
# Chain of NRAS WT (P01111 whole entry): as the sequence (P01111 whole entry G12C) above, with C12G counted along it
# Chain of NRAS WT (P62937 whole entry): as the sequence (P62937 whole entry) above
# Summary of the method: (§3)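 IC50 reflects compound-driven Ras:Cyclophilin A ternary complex displacing BRAF RBD, read as lowered TR-FRET ratio relative to DMSO after Eu anti-His (10 nM) and APC anti-GST (50 nM) detection for 1.5 h. Prior incubation 3 h, 25° C, with 12.5 nM GMPPNP-loaded Ras, 50 nM BRAF RBD, 25 μM Cyclophilin A; top compound 30 μM.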
# KRAS Q61H = KRAS Q61H (Homo sapiens, UniProt P01116+P62937, Q61H); experiment: as above; assay type: biochemical; conditions: KRAS Q61H; read-out: KRAS Q61H FRET data IC50
# Chain of KRAS Q61H (P01116 1-169 isoform P01116-2 Q61H limits assumed): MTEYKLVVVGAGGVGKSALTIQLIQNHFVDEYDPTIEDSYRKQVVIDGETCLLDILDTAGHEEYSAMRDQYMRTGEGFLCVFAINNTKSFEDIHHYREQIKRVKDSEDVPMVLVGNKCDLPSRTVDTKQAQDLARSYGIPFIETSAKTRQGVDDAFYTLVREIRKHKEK
# Chain of KRAS Q61H (P62937 whole entry): as the sequence (P62937 whole entry) above
# Summary of the method: as §3
# NRAS Q61R = NRAS Q61R (Homo sapiens, UniProt P01111+P62937, Q61R); experiment: as above; assay type: biochemical; conditions: NRAS Q61R; read-out: NRAS Q61R FRET data IC50
# Chain of NRAS Q61R (P01111 whole entry Q61R): as the sequence (P01111 whole entry G12C) above, with C12G, Q61R counted along it
# Chain of NRAS Q61R (P62937 whole entry): as the sequence (P62937 whole entry) above
# Summary of the method: as §3
# NRAS Q61K = NRAS Q61K (Homo sapiens, UniProt P01111+P62937, Q61K); experiment: as above; assay type: biochemical; conditions: NRAS Q61K; read-out: NRAS Q61K FRET data IC50
# Chain of NRAS Q61K (P01111 whole entry Q61K): as the sequence (P01111 whole entry G12C) above, with C12G, Q61K counted along it
# Chain of NRAS Q61K (P62937 whole entry): as the sequence (P62937 whole entry) above
# Summary of the method: as §3
# [1] = read-out: KRAS G12S FRET data, IC50
# [2] = KRAS G12V, read-out: KRAS G12V FRET data IC50
# [3] = read-out: KRAS G12D FRET data, IC50
# [4] = NRAS G12C, read-out: NRAS G12C FRET data IC50
# [5] = read-out: KRAS G13C FRET data, IC50
# [6] = KRAS WT, read-out: KRAS WT FRET data IC50
# [7] = KRAS G13D, read-out: KRAS G13D FRET data IC50
# [8] = read-out: KRAS G12C FRET data, IC50
# [9] = KRAS G12V FRET data IC50, KRAS G12V
# [10] = NRAS G12C FRET data IC50, NRAS G12C
# [11] = KRAS WT FRET data IC50, KRAS WT
# [12] = KRAS G13D FRET data IC50, KRAS G13D
# Chain of KRAS G12S (P01116 1-169 isoform P01116-2 G12S limits assumed): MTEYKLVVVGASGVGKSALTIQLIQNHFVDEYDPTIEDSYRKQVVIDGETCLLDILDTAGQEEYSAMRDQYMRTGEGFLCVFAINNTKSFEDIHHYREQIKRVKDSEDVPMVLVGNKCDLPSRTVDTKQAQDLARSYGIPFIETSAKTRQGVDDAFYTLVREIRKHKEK
# Chain of KRAS G12S (P62937 whole entry): as the sequence (P62937 whole entry) above
IC50 (KRAS G12S; [1]),IC50 (KRAS G12V; [2]),IC50 (KRAS G12D; [3]),IC50 (NRAS G12C; [4]),IC50 (KRAS G13C; [5]),IC50 (KRAS WT; [6]),IC50 (KRAS G13D; [7]),IC50 (KRAS G12C; [8]),IC50 (NCI-H358 (K-Ras G12C)),IC50 (NRAS WT),IC50 (KRAS Q61H),IC50 (NRAS Q61R),IC50 (NRAS Q61K),Structure (SMILES),IC50 (Capan-1 (K-Ras G12V)),also measured
10 to 100 nM,10 to 100 nM,100 to 1000 nM,10 to 100 nM,10 to 100 nM,10 to 100 nM,10 to 100 nM,10 to 100 nM,10 to 100 nM,10 to 100 nM,10 to 100 nM,100 to 1000 nM,100 to 1000 nM,CCn1c(-c2cccnc2[C@H](C)OC)c2c3cc(ccc31)-c1cc(O)cc(c1)C[C@H](NC(=O)[C@H](C(C)C)N(C)C(=O)[C@H]1CCN(C(=O)OC3COC3)C1)C(=O)N1CCC[C@H](N1)C(=O)OCC(C)(C)C2 [Example A204],10 to 100 nM,–
100 to 1000 nM,100 to 1000 nM,100 to 1000 nM,10 to 100 nM,100 to 1000 nM,100 to 1000 nM,100 to 1000 nM,100 to 1000 nM,10 to 100 nM,10 to 100 nM,10 to 100 nM,100 to 1000 nM,10 to 100 nM,"CCn1c(-c2cccnc2[C@H](C)OC)c2c3cc(ccc31)-c1csc(n1)C[C@H](NC(=O)[C@H](C(C)C)N(C)C(=O)N1CCC[C@@H](N(C)C)C1)C(=O)N1CCC[C@H](N1)C(=O)OCC(C)(C)C2 (atropisomer, axis not shown) [Example A531]",10 to 100 nM,–
1000 to 10000 nM,1000 to 10000 nM,1000 to 10000 nM,100 to 1000 nM,1000 to 10000 nM,1000 to 10000 nM,1000 to 10000 nM,1000 to 10000 nM,1000 to 10000 nM,1000 to 10000 nM,100 to 1000 nM,100 to 1000 nM,100 to 1000 nM,CCn1c(-c2cccnc2[C@H](C)OC)c2c3cc(ccc31)-c1csc(n1)C[C@H](NC(=O)[C@H](C(C)C)N(C)C(=O)N1[C@@H](C)CN(C)C[C@@H]1C)C(=O)N1CCC[C@H](N1)C(=O)OCC(C)(C)C2 [Example A609],100 to 1000 nM,–
100 to 1000 nM,100 to 1000 nM,100 to 1000 nM,10 to 100 nM,100 to 1000 nM,100 to 1000 nM,100 to 1000 nM,10 to 100 nM,< 10 nM,10 to 100 nM,10 to 100 nM,10 to 100 nM,10 to 100 nM,CCn1c(-c2cccnc2[C@H](C)OC)c2c3cc(ccc31)-c1csc(n1)C[C@H](NC(=O)[C@H](C(C)C)N(C)C(=O)N(C)C)C(=O)N1CCC[C@H](N1)C(=O)OCC(C)(C)C2 (racemic) [Example A136],10 to 100 nM,–
100 to 1000 nM,100 to 1000 nM,1000 to 10000 nM,100 to 1000 nM,100 to 1000 nM,100 to 1000 nM,1000 to 10000 nM,100 to 1000 nM,100 to 1000 nM,100 to 1000 nM,100 to 1000 nM,1000 to 10000 nM,100 to 1000 nM,CCn1c(-c2cccnc2[C@H](C)OC)c2c3cc(ccc31)-c1csc(n1)C[C@H](NC(=O)[C@H]1CCO1)C(=O)N1CCC[C@H](N1)C(=O)OCC(C)(C)C2 [Example A360],100 to 1000 nM,–
1000 to 10000 nM,1000 to 10000 nM,1000 to 10000 nM,100 to 1000 nM,1000 to 10000 nM,1000 to 10000 nM,1000 to 10000 nM,100 to 1000 nM,100 to 1000 nM,1000 to 10000 nM,100 to 1000 nM,1000 to 10000 nM,1000 to 10000 nM,CCn1c(-c2cccnc2[C@H](C)OC)c2c3cc(ccc31)-c1csc(n1)C[C@H](NC(=O)[C@H](C(C)C)N(C)C(=O)N1CC[C@H]1C(=O)NC)C(=O)N1CC(C)C[C@H](N1)C(=O)OCC(C)(C)C2 (stereo partly shown) [Example A282],100 to 1000 nM,–
100 to 1000 nM,100 to 1000 nM,100 to 1000 nM,100 to 1000 nM,100 to 1000 nM,100 to 1000 nM,100 to 1000 nM,100 to 1000 nM,10 to 100 nM,100 to 1000 nM,10 to 100 nM,10 to 100 nM,10 to 100 nM,"CCn1c(-c2cccnc2[C@H](C)OC)c2c3cc(ccc31)-c1csc(n1)C[C@H](NC(=O)[C@H](C(C)C)N(C)C(=O)N1CCCC13CCOCC3)C(=O)N1CCC[C@H](N1)C(=O)OCC(C)(C)C2 (atropisomer, axis not shown) [Example A520]",10 to 100 nM,–
–,–,–,–,–,–,–,–,100 to 1000 nM,100 to 1000 nM,100 to 1000 nM,100 to 1000 nM,100 to 1000 nM,CCn1c(-c2cccnc2[C@H](C)OC)c2c3cc(ccc31)-c1csc(n1)C[C@H](NC(=O)N1CCCC1)C(=O)N1CCC[C@H](N1)C(=O)OCC(C)(C)C2 [Example A267],100 to 1000 nM,"IC50 (KRAS G12S; KRAS G12S FRET data, IC50): 100 to 1000 nM; IC50 (KRAS G12V; [9]): 100 to 1000 nM; IC50 (KRAS G12D; KRAS G12D FRET data, IC50): 100 to 1000 nM; IC50 (NRAS G12C; [10]): 10 to 100 nM; IC50 (KRAS G13C; KRAS G13C FRET data, IC50): 100 to 1000 nM; IC50 (KRAS WT; [11]): 100 to 1000 nM; IC50 (KRAS G13D; [12]): 100 to 1000 nM; IC50 (KRAS G12C; KRAS G12C FRET data, IC50): 100 to 1000 nM"
10 to 100 nM,10 to 100 nM,100 to 1000 nM,10 to 100 nM,10 to 100 nM,10 to 100 nM,100 to 1000 nM,10 to 100 nM,10 to 100 nM,10 to 100 nM,10 to 100 nM,10 to 100 nM,10 to 100 nM,CCn1c(-c2cccnc2[C@H](C)OC)c2c3cc(ccc31)-c1csc(n1)C[C@H](NC(=O)[C@H](C(C)C)N(C)C(=O)N1CCC(C(=O)C(F)(F)F)CC1)C(=O)N1CCC[C@H](N1)C(=O)OCC(C)(C)C2 [Example A422],100 to 1000 nM,–
–,–,–,–,–,–,–,–,10 to 100 nM,10 to 100 nM,10 to 100 nM,100 to 1000 nM,10 to 100 nM,"CCn1c(-c2cccnc2[C@H](C)OC)c2c3cc(ccc31)-c1csc(n1)C[C@H](NC(=O)[C@H](C(C)C)N(C)C(=O)N1CCC(N(C)C)CC1)C(=O)N1CCC[C@H](N1)C(=O)OCC(C)(C)C2 (atropisomer, axis not shown) [Example A571]",10 to 100 nM,"IC50 (KRAS G12S; KRAS G12S FRET data, IC50): 100 to 1000 nM; IC50 (KRAS G12V; [9]): 100 to 1000 nM; IC50 (KRAS G12D; KRAS G12D FRET data, IC50): 100 to 1000 nM; IC50 (NRAS G12C; [10]): 10 to 100 nM; IC50 (KRAS G13C; KRAS G13C FRET data, IC50): 100 to 1000 nM; IC50 (KRAS WT; [11]): 10 to 100 nM; IC50 (KRAS G13D; [12]): 100 to 1000 nM; IC50 (KRAS G12C; KRAS G12C FRET data, IC50): 10 to 100 nM"
100 to 1000 nM,100 to 1000 nM,100 to 1000 nM,10 to 100 nM,100 to 1000 nM,100 to 1000 nM,100 to 1000 nM,10 to 100 nM,< 10 nM,100 to 1000 nM,10 to 100 nM,10 to 100 nM,100 to 1000 nM,"CCn1c(-c2cc(N3CCN(C)CC3)cnc2[C@H](C)OC)c2c3cc(ccc31)-c1csc(n1)C[C@H](NC(=O)[C@H](C(C)C)N(C)C(=O)[C@@H]1OCC[C@@H]1c1ccccc1)C(=O)N1CCC[C@H](N1)C(=O)OCC(C)(C)C2 (atropisomer, axis not shown) [Example A583]",< 10 nM,–
